Test results taken from article PMC11541572, “Nucleotidyltransferase toxin MenT extends aminoacyl acceptor ends of serine tRNAs to control Mycobacterium tuberculosis growth” (Nature Communications, 2024).

Tests used:
MenT1 = biological target: T1, MenT1 (Mycobacterium tuberculosis, UniProt L7N686)
T1 construct: gene Rv0078A

MenT3 = biological target: T2, MenT3 (Mycobacterium tuberculosis, UniProt P96356)
T2 construct: gene Rv1045

PcnA = PcnA (Mycobacterium tuberculosis, UniProt L7N672)
Chain of PcnA (L7N672 entry or part of it): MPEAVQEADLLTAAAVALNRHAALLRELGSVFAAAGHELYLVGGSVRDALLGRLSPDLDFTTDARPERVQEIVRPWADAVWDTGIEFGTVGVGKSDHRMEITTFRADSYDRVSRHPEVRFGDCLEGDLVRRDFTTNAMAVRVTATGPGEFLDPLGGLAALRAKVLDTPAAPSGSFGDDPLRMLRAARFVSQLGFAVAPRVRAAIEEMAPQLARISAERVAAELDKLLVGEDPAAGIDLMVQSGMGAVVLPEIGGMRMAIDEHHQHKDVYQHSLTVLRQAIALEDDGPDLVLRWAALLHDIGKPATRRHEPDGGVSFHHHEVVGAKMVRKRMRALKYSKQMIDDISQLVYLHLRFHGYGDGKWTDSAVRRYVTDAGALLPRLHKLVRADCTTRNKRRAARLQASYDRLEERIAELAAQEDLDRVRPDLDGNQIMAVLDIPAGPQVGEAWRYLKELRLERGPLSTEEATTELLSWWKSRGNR

T1 sequence (L7N686 1-197): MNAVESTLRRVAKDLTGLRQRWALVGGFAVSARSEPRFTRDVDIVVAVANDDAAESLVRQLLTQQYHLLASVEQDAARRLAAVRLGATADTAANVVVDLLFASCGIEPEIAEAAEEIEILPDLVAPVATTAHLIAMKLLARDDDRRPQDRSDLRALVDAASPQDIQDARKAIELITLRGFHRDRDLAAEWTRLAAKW
T2 sequence (P96356 1-293): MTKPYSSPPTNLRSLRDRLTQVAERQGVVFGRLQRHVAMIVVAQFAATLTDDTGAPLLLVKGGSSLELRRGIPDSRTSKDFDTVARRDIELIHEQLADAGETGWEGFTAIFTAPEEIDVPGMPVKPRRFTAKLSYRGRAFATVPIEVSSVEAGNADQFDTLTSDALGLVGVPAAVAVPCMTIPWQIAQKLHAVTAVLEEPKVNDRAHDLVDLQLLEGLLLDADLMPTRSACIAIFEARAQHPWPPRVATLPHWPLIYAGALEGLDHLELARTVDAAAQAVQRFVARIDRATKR

Row | SMILES | transfer of alpha-32P nucleotide to tRNA, urea-PAGE autoradiography (MenT1) | transfer of alpha-32P nucleotide to tRNA, urea-PAGE autoradiography (MenT3) | pyrophosphorolysis of labelled tRNA, urea-PAGE autoradiography (PcnA)
1 | Nc1ccn([C@@H]2O[C@H](COP(=O)(O)OP(=O)(O)OP(=O)(O)O)[C@@H](O)[C@H]2O)c(=O)n1 [CTP] | in the presence of α-32P labeled CTP for MenT1 and MenT3 | CTP is by far the preferred nucleotide substrate of MenT3 in vitro | –
2 | O=P(O)(O)OP(=O)(O)O [inorganic pyrophosphate] | – | – | PcnA is indeed capable of generating truncated tRNA^Ser-4ΔA and ΔCA from MenT3-modified tRNA
